Counter-ions that a name gives are not always drawn.

`CCOc1ccc2c(c1)C(C)(c1cc(C(=O)NCCN)ccc1Cl)C(=O)N2S(=O)(=O)c1ccc(C(=O)NC(C)(C)C)cc1OC` (stereo not drawn) (as salt: hydrochloride) [Example 47, N-tert-Butyl-4-{3-[2-chloro-5-(2-aminoethylamino-carbonyl)-phenyl]-5-ethoxy-3-methyl-2-oxo-2,3-dihydro-indole-1-sulphonyl}-3-methoxy-benzamide] registered a melting point of 204 °C. Next, `CCOc1ccc2c(c1)C(C)(c1ccccc1Cl)C(=O)N2S(=O)(=O)c1ccc(C(=O)NC(C)(C)CC)cc1` (stereo not drawn) [Example 4, 4-[3-(2-Chloro-phenyl)-5-ethoxy-3-methyl-2-oxo-2,3-dihydro-indole-1-sulphonyl]-N-(1,1-dimethyl-propyl)-benzamide]: 138 °C. In the case of `CCOc1ccc2c(c1)C(C)(c1cc(C(=O)O)ccc1Cl)C(=O)N2S(=O)(=O)c1ccc(C(=O)NC(C)(C)C)cc1OC` (stereo not drawn) [Example 19, 3-[1-(4-tert-Butylcarbamoyl-2-methoxy-benzenesulphonyl)-5-ethoxy-3-methyl-2-oxo-2,3-dihydro-1H-indol-3-yl]-4-chloro-benzoic acid] it was 200 °C; in that of `CCOc1ccc2c(c1)C(C)(c1cc(C(=O)N3CC4CCN(C)C4C3)ccc1Cl)C(=O)N2S(=O)(=O)c1ccc(C(=O)NC(C)(C)C)cc1OC` (stereo not drawn) [Example 46, N-tert-Butyl-4-{3-[2-chloro-5-(1-methyl-hexahydro-pyrrolo[3,4-b]pyrrole-5-carbonyl)-phenyl]-5-ethoxy-3-methyl-2-oxo-2,3-dihydro-indole-1-sulphonyl}-3-methoxy-benzamide], 130 °C; in that of `CCOc1ccc2c(c1)C(C)(c1cc(C(=O)O)ccc1Cl)C(=O)N2S(=O)(=O)c1ccc(C(=O)NC(C)(C)C)cc1` (stereo not drawn) [Example 48, 3-[1-(4-tert-Butylcarbamoyl-benzenesulphonyl)-5-ethoxy-3-methyl-2-oxo-2,3-dihydro-1H-indol-3-yl]-4-chloro-benzoic acid], 188 °C. Next, `CCOc1ccc2c(c1)C(C)(c1cc(N)ccc1Cl)C(=O)N2S(=O)(=O)c1ccc(C(=O)NC(C)(C)C)cc1OC` (stereo not drawn) [Example 55, 4-[3-(5-Amino-2-chloro-phenyl)-5-ethoxy-3-methyl-2-oxo-2,3-dihydro-indole-1-sulphonyl]-N-tert-butyl-3-methoxy-benzamide]: 166 °C; `CCOc1ccc2c(c1)C(C)(c1ccccc1)C(=O)N2S(=O)(=O)c1ccc(C(=O)NC(C)(C)C)cc1` (stereo not drawn) [Example 98, N-tert-butyl-4-[3-methyl-3-phenyl-5-ethoxy-2-oxo-2,3-dihydroindole-1-sulphonyl]-benzamide]: 89 °C; `CCOc1ccc2c(c1)C(C)(c1ccccc1F)C(=O)N2S(=O)(=O)c1ccc(C(=O)NC(C)(C)C)cc1` (stereo not drawn) [Example 101, N-tert-butyl-4-[3-methyl-3-(2-fluorophenyl)-5-ethoxy-2-oxo-2,3-dihydroindole-1-sulphonyl]benzamide]: 116 °C. `CCOc1ccc2c(c1)C(C)(c1cccc(OC)c1)C(=O)N2S(=O)(=O)c1ccc(C(=O)NC(C)(C)C)cc1` (stereo not drawn) [Example 103, N-tert-butyl-4-[3-(3-methoxyphenyl)-5-ethoxy-3-methyl-2-oxo-2,3-dihydroindole-1-sulphonyl]benzamide] displayed a melting point of 101 °C. Compound `CCOc1ccc2c(c1)C(C)(c1c(F)cccc1Cl)C(=O)N2S(=O)(=O)c1ccc(C(=O)NC(C)(C)C)cc1` (stereo not drawn) [Example 125, N-tert-butyl-4-[3-methyl-3-(2-chloro-6-fluorophenyl)-5-ethoxy-2-oxo-2,3-dihydro-indole-1-sulphonyl]benzamide] gave a melting point of 128 °C. In the case of `CC(C)(C)NC(=O)c1ccc(S(=O)(=O)N2C(=O)C(C)(c3ccccc3Cl)c3cc(OCC(F)(F)F)ccc32)cc1` (stereo not drawn) [Example 143, N-tert-Butyl-4-[3-(2-chlorophenyl)-3-methyl-2-oxo-5-(2,2,2-trifluoroethoxy)-2,3-di-hydroindole-1-sulphonyl]benzamide] it was 134 °C. In the case of `CCOc1ccc2c(c1)C(C)(c1cccc(OCCCN(C)C)c1)C(=O)N2S(=O)(=O)c1ccc(C(=O)NC(C)(C)C)cc1` (stereo not drawn) [Example 145, N-tert-Butyl-4-{3-[3-(3-dimethylaminopropoxy)phenyl]-5-ethoxy-3-methyl-2-oxo-2,3-dihydroindole-1-sulphonyl}benzamide] it was 86 °C.

Source of the values: US20100069384A1, “5-ALKYLOXY-INDOLIN-2-ONE DERIVATIVES, PREPARATION THEREOF AND APPLICATION THEREOF IN THERAPY” (SANOFI-AVENTIS, priority 2006, published 2010).
